{"source": "paper PMC8315116", "about": "(Biochemistry, 2021)", "key": {"human MAT2A [1]": {"target": "T1, human MAT2A (Homo sapiens, UniProt P31153)", "T1 sequence (P31153 whole entry)": "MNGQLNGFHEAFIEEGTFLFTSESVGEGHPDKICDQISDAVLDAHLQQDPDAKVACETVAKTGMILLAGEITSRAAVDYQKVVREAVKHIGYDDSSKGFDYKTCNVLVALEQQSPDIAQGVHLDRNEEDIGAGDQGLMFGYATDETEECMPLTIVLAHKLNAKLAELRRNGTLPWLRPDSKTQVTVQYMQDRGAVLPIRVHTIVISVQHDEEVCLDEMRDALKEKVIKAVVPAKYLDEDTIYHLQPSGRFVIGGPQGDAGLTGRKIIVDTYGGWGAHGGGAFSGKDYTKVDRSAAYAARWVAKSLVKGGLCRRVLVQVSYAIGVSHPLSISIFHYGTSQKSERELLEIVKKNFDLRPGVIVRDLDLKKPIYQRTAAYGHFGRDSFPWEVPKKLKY", "assay": "ATP analogues as alternative substrates of MAT2A", "format": "biochemical", "conditions": "Figure 5C"}, "human MAT2A [2]": {"target": "T1, human MAT2A", "assay": "Product inhibition of MAT2A by AdoMet", "format": "biochemical", "conditions": "non-competitive"}, "human MAT2A [3]": {"target": "T1, human MAT2A", "assay": "HPLC assay of ATPase activity of MAT2A", "format": "biochemical", "conditions": "80 μM AdoMet or 10 μM ammonium vanadate"}, "human MAT2A [4]": {"target": "T1, human MAT2A", "assay": "Triphosphate hydrolysis by MAT2A", "format": "biochemical", "conditions": "for Km: read-out: Km of triphosphate hydrolysis"}, "human MAT2A [5]": {"target": "T1, human MAT2A", "assay": "Thermal melt of MAT2A with Sypro Orange and ligands", "conditions": "10 mM MgCl2"}, "human MAT2A [6]": {"target": "T1, human MAT2A", "assay": "Inhibition of MAT2A by PNP or PPNP", "conditions": "non-competitive"}, "human MAT2A [7]": {"target": "T1, human MAT2A", "conditions": "varied substrate; fits to data of Fig. 2"}, "human MAT2A [8]": {"target": "T1, human MAT2A", "assay": "Inhibition of MAT2A by ATP and triphosphate analogues", "format": "biochemical"}, "[9]": {"conditions": "1 mM methionine and 200 μM ATP, NO = no significant inhibition observed"}}, "note": "“And” between values parts separate entries of the source, which are not always exact repeats. Equal entries are not always repeated. Where two headings read alike, the source gives them in different places.", "data": [{"compound": "Nc1ncnc2c1ncn2[C@@H]1O[C@H](COP(=O)(O)CP(=O)(O)OP(=O)(O)O)[C@@H](O)[C@H]1O", "note": "[AMPCPP]", "values": [{"measurement": "production of orthophosphate from methionine and ATP analogue", "setting": "human MAT2A [1]", "result": "phosphate formation"}]}, {"compound": "C[S+](CC[C@H](N)C(=O)[O-])C[C@H]1O[C@@H](n2cnc3c(N)ncnc32)[C@H](O)[C@@H]1O", "note": "(stereo partly drawn) [AdoMet, S-Adenosyl-L-methionine]", "values": [{"measurement": "Ki", "setting": "human MAT2A [2]; with respect to ATP", "result": "136 ± 7", "unit": "µM"}, {"measurement": "Ki", "setting": "human MAT2A [2]; with respect to methionine", "result": "81 ± 10", "unit": "µM"}, {"measurement": "effect on the ATPase reaction of MAT2A", "setting": "human MAT2A [3]", "result": "inhibited"}, {"measurement": "activation of triphosphate hydrolysis", "setting": "human MAT2A [4]; AdoMet at 150 μM versus no AdoMet", "result": 3.5, "unit": "fold"}, {"measurement": "thermal stabilization of MAT2A, in words", "setting": "human MAT2A [5]", "result": "did little to increase MAT2A stability"}]}, {"compound": "O=P(O)(O)NP(=O)(O)O", "note": "[Imidodiphosphate]", "values": [{"measurement": "Ki", "setting": "human MAT2A [6]; Ki, toward ATP", "result": "14 ± 1", "unit": "µM"}, {"measurement": "Ki", "setting": "human MAT2A [6]; Ki, toward methionine", "result": "17 ± 2", "unit": "µM"}]}, {"compound": "CSCC[C@H](N)C(=O)O", "note": "[Methionine]", "values": [{"measurement": "kcat", "setting": "human MAT2A [7]", "result": "0.27 ± 0.01", "unit": "s⁻¹"}, {"measurement": "shift of thermal melt temperature (Tm) compared to MAT2A alone", "setting": "human MAT2A [5]", "result": "1-3 °C"}]}, {"compound": "O=P(O)(O)NP(=O)(O)NP(=O)(O)O", "note": "[PNPNP, (α–β, β–γ)-diimido triphosphate]", "values": [{"measurement": "Ki", "setting": "human MAT2A [8]; [9]", "result": "0.12 ± 0.03", "unit": "µM"}, {"measurement": "increased affinity compared to PPNP", "setting": "human MAT2A [8]; PNPNP versus PPNP", "result": "~10", "unit": "fold"}, {"measurement": "Ki", "setting": "human MAT2A [8]; read-out: Ki (inhibitor)", "result": 0.115, "unit": "µM"}, {"measurement": "shift of thermal melt temperature (Tm) compared to MAT2A alone", "setting": "human MAT2A [5]", "result": "> 50", "unit": "°C"}]}, {"compound": "O=P(O)(O)NP(=O)(O)OP(=O)(O)O", "note": "[PPNP, Imidotriphosphate]", "values": [{"measurement": "Ki", "setting": "human MAT2A [6]; toward ATP", "result": "0.86 ± 0.06", "unit": "µM"}, {"measurement": "Ki", "setting": "human MAT2A [6]; toward methionine", "result": "0.76 ± 0.07", "unit": "µM"}]}, {"compound": "O=P(O)(O)OP(=O)(O)OP(=O)(O)O", "note": "[Triphosphate]", "values": [{"measurement": "Ki", "setting": "human MAT2A [8]; [9]", "result": "3.45 µM and 3.4 µM"}, {"measurement": "rate of triphosphate hydrolysis", "setting": "human MAT2A [4]; AdoMet at 150 μM", "result": "0.07 ± 0.01", "unit": "s⁻¹"}, {"measurement": "kcat of triphosphate hydrolysis", "setting": "human MAT2A [4]; AdoMet at 1 mM", "result": "0.033 ± 0.003", "unit": "s⁻¹"}, {"measurement": "Km", "setting": "human MAT2A [4]; AdoMet at 150 μM", "result": "6 ± 2", "unit": "µM"}, {"measurement": "Km", "setting": "human MAT2A [4]; without AdoMet present", "result": "4 ± 2", "unit": "µM"}, {"measurement": "rate of triphosphate hydrolysis", "setting": "human MAT2A [4]; without AdoMet present", "result": "0.020 ± 0.003", "unit": "s⁻¹"}, {"measurement": "thermal stabilization of MAT2A, in words", "setting": "human MAT2A [5]", "result": "large shifts in the Tm"}]}, {"compound": "O=P(O)(O)OP(=O)(O)O", "note": "[pyrophosphate]", "values": [{"measurement": "thermal stabilization of MAT2A, in words", "setting": "human MAT2A [5]", "result": "large shifts in the Tm"}]}, {"compound": "phosphate", "values": [{"measurement": "thermal stabilization of MAT2A, in words", "setting": "human MAT2A [5]", "result": "did little to increase MAT2A stability"}]}]}
